From patent US9210927B2, “Pesticidal compositions and processes related thereto” (Dow AgroSciences LLC, priority 2013, dated 2015)

Legend:
BAW (Spodoptera exigua) = test: Bioassays on Beet Armyworm (BAW), 128-well diet tray assay; assay type: in vivo; conditions: for pest or weed control at 50 µg/cm2: Spodoptera exigua, 168 h, read-out: BAW Rating
Procedure: (§1) Bioassays on Beet Armyworm (“BAW”) and Corn Earworm (“CEW”) and Cabbage Looper (“CL”)
(§2) Certain molecules disclosed in this document were tested against BAW and CEW and CL using procedures described in the following examples. In the reporting of the results, the “BAW & CEW & CL Rating Table” was used (See Table Section).
Bioassays on BAW (Spodoptera exigua)
Bioassays on BAW were conducted using a 128-well diet tray assay. one to five second instar BAW larvae were placed in each well (3 mL) of the diet tray that had been previously filled with 1 mL of artificial diet to which 50 μg/cm^2 of the test compound (dissolved in 50 μL of 90:10 acetone-water mixture) had been applied (to each of eight wells) and then allowed to dry. Trays were covered with a clear self-adhesive cover, and held at 25° C., 14:10 light-dark for five to seven days. Percent mortality was recorded for the larvae in each well; activity in the eight wells was then averaged. The results are indicated in the table entitled “Table 3: Assay Results” (See Table Section).

CEW (Helicoverpa zea) = test: Bioassays on Corn Earworm (CEW), 128-well diet tray assay; assay type: in vivo; conditions: percent mortality, second instar larvae, 50 μg/cm^2 on artificial diet, five to seven days, 25° C.; for pest or weed control at 50 µg/cm2: Helicoverpa zea, 168 h, read-out: CEW Rating
Procedure: as §1, §2
Bioassays on CEW (Helicoverpa zea)
Bioassays on CEW were conducted using a 128-well diet tray assay. one to five second instar CEW larvae were placed in each well (3 mL) of the diet tray that had been previously filled with 1 mL of artificial diet to which 50 μg/cm^2 of the test compound (dissolved in 50 μL of 90:10 acetone-water mixture) had been applied (to each of eight wells) and then allowed to dry. Trays were covered with a clear self-adhesive cover, and held at 25° C., 14:10 light-dark for five to seven days. Percent mortality was recorded for the larvae in each well; activity in the eight wells was then averaged. The results are indicated in the table entitled “Table 3: Assay Results” (See Table Section).

SMILES | pest or weed control at 50 µg/cm2 (BAW (Spodoptera exigua)) | pest or weed control at 50 µg/cm2 (CEW (Helicoverpa zea)) | BAW Rating (BAW (Spodoptera exigua); percent mortality, second instar larvae, 50 μg/cm^2 on artificial diet, five to seven days, 25° C.) | CEW Rating (CEW (Helicoverpa zea))
Cc1cc(/C=C/C(c2cc(Cl)cc(Cl)c2)C(F)(F)F)ccc1C(=O)NC(C)(C)c1ccccn1 (centres unmarked) [AC16] | 50 to 100% | 50 to 100% | – | –
Cc1cc(/C=C/C(c2cc(Cl)cc(Cl)c2)C(F)(F)F)ccc1C(=O)NCc1ccoc1 (centres unmarked) [AC20] | 50 to 100% | 50 to 100% | – | –
Cc1cc(/C=C/C(c2cc(Cl)c(Cl)c(Cl)c2)C(F)(F)F)ccc1C(=O)NCc1ccc(Cl)nc1 (centres unmarked) [AC22] | 50 to 100% | 50 to 100% | – | –
Cc1cc(/C=C/C(c2cc(Cl)cc(Cl)c2)C(F)(F)F)ccc1C(=O)NCC(=O)NCC(F)(F)F (centres unmarked) [AC24] | – | – | A (50-100) | A (50-100)
O=C(NC1CS(=O)(=O)C1)c1ccc(/C=C/C(c2cc(Cl)c(Cl)c(Cl)c2)C(F)(F)F)cc1C(F)(F)F (centres unmarked) [AC35] | 50 to 100% | 50 to 100% | – | –
Cc1cc(/C=C/C(c2cc(Cl)c(F)c(Cl)c2)C(F)(F)F)ccc1C(=O)NCc1ccc(Cl)nc1 (centres unmarked) [AC38] | 50 to 100% | 50 to 100% | – | –
Cc1cc(/C=C/C(c2cc(Cl)cc(Cl)c2)C(F)(F)F)ccc1C(=O)NCc1cncnc1 (centres unmarked) [AC39, 4-((E)-3-(3,5-Dichlorophenyl)-4,4,4-trifluorobut-1-enyl)-2-methyl-N-((pyrimidin-5-yl)methyl)benzamide] | 50 to 100% | 50 to 100% | – | –
Cc1cc(/C=C/C(c2cc(Cl)cc(Cl)c2)C(F)(F)F)ccc1C(=O)NCC(=O)NC1CC1 (centres unmarked) [AC40] | 50 to 100% | 50 to 100% | – | –
Cc1cc(/C=C/C(c2cc(Cl)cc(Cl)c2)C(F)(F)F)ccc1C(=O)NN(C)c1ccccc1F (centres unmarked) [AC45] | 50 to 100% | 50 to 100% | – | –
O=C(NCc1ccc(Cl)cn1)c1ccc(/C=C/C(c2cc(Cl)cc(Cl)c2)C(F)(F)F)cc1Br (centres unmarked) [AC46] | 50 to 100% | 50 to 100% | – | –
O=C(CNC(=O)c1ccc(/C=C/C(c2cc(Cl)cc(Cl)c2)C(F)(F)F)cc1F)NCC(F)(F)F (centres unmarked) [AC62] | 50 to 100% | 50 to 100% | – | –
O=C(CNC(=O)c1ccc(/C=C/C(c2cc(Cl)c(F)c(Cl)c2)C(F)(F)F)cc1F)NCC(F)(F)F (centres unmarked) [AC68] | 50 to 100% | 50 to 100% | – | –
O=C(NC1CS(=O)(=O)C1)c1ccc(/C=C/C(c2cc(Cl)c(F)c(Cl)c2)C(F)(F)F)cc1F (centres unmarked) [AC84] | 50 to 100% | 50 to 100% | – | –
CCc1cc(/C=C/C(c2cc(Cl)c(F)c(Cl)c2)C(F)(F)F)ccc1C(=O)NC1CS(=O)(=O)C1 (centres unmarked) [AC86] | 50 to 100% | 50 to 100% | – | –
FC(F)(F)CNC(=S)CNC(=S)c1ccc(/C=C/C(c2cc(Cl)c(Cl)c(Cl)c2)C(F)(F)F)cc1Br (centres unmarked) [AC90, (E)-2-Bromo-N-(2-thioxo-2-((2,2,2-trifluoroethyl)amino)ethyl)-4-(4,4,4-trifluoro-3-(3,4,5-trichlorophenyl)but-1-en-1-yl)benzothioamide] | 50 to 100% | 50 to 100% | – | –
O=C(CNC(=S)c1ccc(/C=C/C(c2cc(Cl)c(Cl)c(Cl)c2)C(F)(F)F)cc1Br)NCC(F)(F)F (centres unmarked) [AC91, (E)-2-(2-Bromo-4-(4,4,4-trifluoro-3-(3,4,5-trichlorophenyl)but-1-en-1-yl)phenylthioamido)-N-(2,2,2-trifluoroethyl)acetamide] | 50 to 100% | 50 to 100% | – | –

SMILES | pest or weed control at 50 µg/cm2 (BAW (Spodoptera exigua)) | pest or weed control at 50 µg/cm2 (CEW (Helicoverpa zea)) | BAW Rating (BAW (Spodoptera exigua); percent mortality, second instar larvae, 50 μg/cm^2 on artificial diet, five to seven days, 25° C.) | CEW Rating (CEW (Helicoverpa zea))
O=C(NCC(=S)NCC(F)(F)F)c1ccc(/C=C/C(c2cc(Cl)c(Cl)c(Cl)c2)C(F)(F)F)cc1Br (centres unmarked) [AC92, (E)-2-Bromo-N-(2-thioxo-2-((2,2,2-trifluoroethyl)amino)ethyl)-4-(4,4,4-trifluoro-3-(3,4,5-trichlorophenyl)but-1-en-1-yl)benzamide] | 50 to 100% | 50 to 100% | – | –
O=C(CNC(=O)c1ccc(/C=C\C(c2cc(Cl)c(Cl)c(Cl)c2)C(F)(F)F)cc1Br)NCC(F)(F)F (centres unmarked) [AC95, (Z)-2-Bromo-N-(2-oxo-2-((2,2,2-trifluoroethyl)amino)ethyl)-4-(4,4,4-trifluoro-3-(3,4,5-trichlorophenyl)but-1-en-1-yl)benzamide] | 50 to 100% | 50 to 100% | – | –
O=C(CNC(=O)c1ccc(/C=C/C(c2cc(Cl)c(F)c(Cl)c2)C(F)(F)F)cc1[N+](=O)[O-])NCC(F)(F)F (centres unmarked) [AC98] | 50 to 100% | 50 to 100% | – | –
O=C(CNC(=O)c1ccc(/C=C/C(c2ccc(F)c(Cl)c2)C(F)(F)F)cc1Br)NCC(F)(F)F (centres unmarked) [AC99] | 50 to 100% | 50 to 100% | – | –
CC(=O)N1CCC(NC(=O)c2ccc(/C=C/C(c3cc(Cl)c(Cl)c(Cl)c3)C(F)(F)F)cc2Br)CC1 (centres unmarked) [AC103, (E)-N-(1-Acetylpiperidin-4-yl)-2-bromo-4-(4,4,4-trifluoro-3-(3,4,5-trichlorophenyl)but-1-en-1-yl)benzamide] | 50 to 100% | 50 to 100% | – | –
N#CCN1CCC(NC(=O)c2ccc(/C=C/C(c3cc(Cl)c(Cl)c(Cl)c3)C(F)(F)F)cc2Br)CC1 (centres unmarked) [AC107] | 0 to 50% | 50 to 100% | – | –
CONC(=O)CNC(=O)c1ccc(/C=C/C(c2cc(Cl)c(Cl)c(Cl)c2)C(F)(F)F)cc1Br (centres unmarked) [AC110] | 50 to 100% | 50 to 100% | – | –
C=CCNC(=O)CNC(=O)c1ccc(/C=C/C(c2cc(Cl)c(Cl)c(Cl)c2)C(F)(F)F)cc1Br (centres unmarked) [AC111] | 50 to 100% | 50 to 100% | – | –
O=C(NCCc1ccc(Cl)nc1)c1ccc(/C=C/C(c2cc(Cl)c(Cl)c(Cl)c2)C(F)(F)F)cc1Br (centres unmarked) [AC113] | 0 to 50% | 50 to 100% | – | –
O=C(NC1CCNCC1)c1ccc(/C=C/C(c2cc(Cl)c(Cl)c(Cl)c2)C(F)(F)F)cc1Br (centres unmarked) [AC114, (E)-2-Bromo-N-(piperidin-4-yl)-4-(4,4,4-trifluoro-3-(3,4,5-trichlorophenyl)but-1-en-1-yl)benzamide] | 50 to 100% | 0 to 50% | – | –
Cc1cc(/C=C/C(c2cc(Cl)cc(Cl)c2)C(F)(F)F)ccc1C(=S)NCc1ccc(Cl)nc1 (centres unmarked) [AC115, (E)-N-((6-Chloropyridin-3-yl)methyl)-4-(3-(3,5-dichlorophenyl)-4,4,4-trifluorobut-1-en-1-yl)-2-methylbenzothioamide] | 50 to 100% | 50 to 100% | – | –
O=C(NC1CCc2cc(/C=C/C(c3cc(Cl)c(Cl)c(Cl)c3)C(F)(F)F)ccc21)C1CC1 (centres unmarked) [BC6] | 50 to 100% | 50 to 100% | – | –
O=C(NC1CCCc2cc(/C=C/C(c3cc(Cl)c(Cl)c(Cl)c3)C(F)(F)F)ccc21)C1CC1 (centres unmarked) [BC7] | 50 to 100% | 50 to 100% | – | –
O=C(Cc1ccc(Cl)nc1)NC1CCc2cc(/C=C/C(c3cc(Cl)c(F)c(Cl)c3)C(F)(F)F)ccc21 (centres unmarked) [BC9] | 50 to 100% | 50 to 100% | – | –
O=C(CC(F)(F)F)NCC(=O)n1ccc2cc(/C=C/C(c3cc(Cl)c(F)c(Cl)c3)C(F)(F)F)ccc21 (centres unmarked) [BC13, (E)-N-(2-(5-(3-(3,5-Dichloro-4-fluorophenyl)-4,4,4-trifluorobut-1-en-1-yl)-1H-indol-1-yl)-2-oxoethyl)-3,3,3-trifluoropropanamide] | 50 to 100% | 50 to 100% | – | –
